# In patent publication US20230036854A1, “HETEROCYCLIC SPIRO-COMPOUNDS AS AM2 RECEPTOR INHIBITORS” (THE UNIVERSITY OF SHEFFIELD, priority 2018, published 2023):
# Target: T1, AM2 receptor (1321N1 cells transfected with CALCRL+RAMP3) (Homo sapiens, UniProt O60896+Q16602)
# T1 construct: host or cells: 1321N1 cells
# Test: AM2 receptor inhibition, LANCE cAMP agonist-antagonist competition assay
# Type: cell-based
# Conditions: inhibition of AM induced cAMP activation, read-out: AM2 D2 protocol: pIC50 (converted)
# How it was run: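 cAMP was quantified by LANCE TR-FRET after an EC50 challenge with adrenomedullin (15 min, room temperature) in CALCRL+RAMP3-transfected 1321N1 cells (2500/well) that had first been exposed to compound for 30 min. Buffer was pH 7.4 HBSS with HEPES and BSA. Forskolin defined 100% stimulation and vehicle 0%.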
# T1 sequence (Q16602 23-461): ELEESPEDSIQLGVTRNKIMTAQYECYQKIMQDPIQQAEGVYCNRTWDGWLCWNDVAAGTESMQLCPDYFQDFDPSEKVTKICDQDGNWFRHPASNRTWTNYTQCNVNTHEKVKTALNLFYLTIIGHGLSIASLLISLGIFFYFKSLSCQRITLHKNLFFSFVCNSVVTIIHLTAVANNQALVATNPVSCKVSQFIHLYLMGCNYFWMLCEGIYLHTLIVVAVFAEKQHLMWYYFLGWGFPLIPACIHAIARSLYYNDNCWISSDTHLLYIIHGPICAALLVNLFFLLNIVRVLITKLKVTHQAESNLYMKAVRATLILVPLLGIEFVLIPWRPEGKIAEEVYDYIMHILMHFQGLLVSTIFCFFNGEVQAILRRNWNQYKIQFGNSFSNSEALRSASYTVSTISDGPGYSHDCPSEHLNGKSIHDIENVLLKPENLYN
# T1 sequence (O60896 24-148): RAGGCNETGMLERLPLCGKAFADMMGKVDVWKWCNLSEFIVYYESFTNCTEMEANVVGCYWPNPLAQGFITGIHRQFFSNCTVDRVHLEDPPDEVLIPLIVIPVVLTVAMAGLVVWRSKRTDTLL
row,Structure (SMILES),IC50
1,"CCC1(C(=O)N(CC(=O)Nc2ccc3c(c2)C[C@@]2(C3)C(=O)Nc3ncccc32)Cc2ccccc2CNC)CCN(C(=O)[C@@H](N)C(C)C)CC1 [Example 82, 1-((S)-2-Amino-3-methylbutanoyl)-4-ethyl-N-(2-((methylamino)methyl)benzyl)-N-(2-oxo-2-(((R)-2′-oxo-1,1′,2′,3-tetrahydrospiro[indene-2,3′-pyrrolo[2,3-b]pyridin]-5-yl)amino)ethyl)piperidine-4-carboxamide]",8.32 nM
2,"CNCc1ccccc1CN(CC(=O)Nc1ccc2c(c1)C[C@@]1(C2)C(=O)Nc2ncccc21)C(=O)C1(C)CCN(CC(=O)N2CCNCC2)CC1 [Example 44, (R)-4-Methyl-N-(2-((methylamino)methyl)benzyl)-N-(2-oxo-2-((2′-oxo-1,1′,2′,3-tetrahydrospiro[indene-2,3′-pyrrolo[2,3-b]pyridin]-5-yl)amino)ethyl)-1-(2-oxo-2-(piperazin-1-yl)ethyl)piperidine-4-carboxamide]",10.7 nM
3,"CNCc1ccccc1CN(CC(=O)Nc1ccc2c(c1)C[C@@]1(C2)C(=O)Nc2ncccc21)C(=O)C1(C)CCN(C(=O)CN)CC1 [Example 28, (R)-1-(2-Aminoacetyl)-4-methyl-N-(2-((methylamino)methyl)benzyl)-N-(2-oxo-2-((2′-oxo-1,1′,2′,3-tetrahydrospiro[indene-2,3′-pyrrolo[2,3-b]pyridin]-5-yl)amino)ethyl)piperidine-4-carboxamide]",3.55 nM
4,"CNCc1ccccc1CN(CC(=O)Nc1ccc2c(c1)C[C@@]1(C2)C(=O)Nc2ncccc21)C(=O)C1(C)CCN(C(=O)C2CCNCC2)CC1 [Example 9, (R)-4-Methyl-N-(2-((methylamino)methyl)benzyl)-N-(2-oxo-2-((2′-oxo-1,1′,2′,3-tetrahydrospiro[indene-2,3′-pyrrolo[2,3-b]pyridin]-5-yl)amino)ethyl)-1-(piperidine-4-carbonyl)piperidine-4-carboxamide]",5.13 nM
5,"CCC1(C(=O)N(CC(=O)Nc2ccc3c(c2)C[C@@]2(C3)C(=O)Nc3ncccc32)Cc2ccccc2CNC)CCN(C(=O)COCCOCCOC)CC1 [Example 74, (R)-4-Ethyl-1-(2-(2-(2-methoxyethoxy)ethoxy)acetyl)-N-(2-((methylamino)methyl)benzyl)-N-(2-oxo-2-((2′-oxo-1,1′,2′,3-tetrahydrospiro[indene-2,3′-pyrrolo[2,3-b]pyridin]-5-yl)amino)ethyl)piperidine-4-carboxamide]",8.71 nM
6,"CNCc1ccccc1CN(CC(=O)Nc1ccc2c(c1)C[C@@]1(C2)C(=O)Nc2ncccc21)C(=O)C1(C)CCN(C(=O)c2ccncn2)CC1 [Example 24, (R)-4-Methyl-N-(2-((methylamino)methyl)benzyl)-N-(2-oxo-2-((2′-oxo-1,1′,2′,3-tetrahydrospiro[indene-2,3′-pyrrolo[2,3-b]pyridin]-5-yl)amino)ethyl)-1-(pyrimidine-4-carbonyl) piperidine-4-carboxamide]",2.95 nM
7,"CNCc1ccccc1CN(CC(=O)Nc1ccc2c(c1)C[C@@]1(C2)C(=O)Nc2ncccc21)C(=O)C1(C)CCN(C(=O)C[C@@H]2CCNC2)CC1 [Example 8, 4-Methyl-N-(2-((methylamino)methyl)benzyl)-N-(2-oxo-2-(((R)-2′-oxo-1,1′,2′,3-tetrahydrospiro[indene-2,3′-pyrrolo[2,3-b]pyridin]-5-yl)amino)ethyl)-1-(2-((S)-pyrrolidin-3-yl)acetyl)piperidine-4-carboxamide]",18.2 nM
8,"CNCc1ccccc1CN(CC(=O)Nc1ccc2c(c1)CC1(C2)C(=O)Nc2ncccc21)C(=O)C1(C)CCN(C(=O)CN2CCNCC2)CC1 (stereo not drawn) [Example 30, 4-Methyl-N-(2-((methylamino)methyl)benzyl)-N-(2-oxo-2-((2′-oxo-1,1′,2′,3-tetrahydrospiro[indene-2,3′-pyrrolo[2,3-b]pyridin]-5-yl)amino)ethyl)-1-(2-(piperazin-1-yl)acetyl)piperidine-4-carboxamide]",0.589 nM
9,"CNCc1ccccc1CN(CC(=O)Nc1ccc2c(c1)C[C@@]1(C2)C(=O)Nc2ncccc21)C(=O)C1(C)CCN(C(=O)N2CCNCC2)CC1 [Example 56, (R)-4-Methyl-N-(2-((methylamino)methyl)benzyl)-N-(2-oxo-2-((2′-oxo-1,1′,2′,3-tetrahydrospiro[indene-2,3′-pyrrolo[2,3-b]pyridin]-5-yl)amino)ethyl)-1-(piperazine-1-carbonyl)piperidine-4-carboxamide]",13.2 nM

# The remaining lines, values ahead:
row,IC50,Structure (SMILES)
1,5.5 nM,"CCC1(C(=O)N(CC(=O)Nc2ccc3c(c2)C[C@@]2(C3)C(=O)Nc3ncccc32)Cc2ccccc2CNC)CCN(C(=O)C2CCC2)CC1 [Example 89, (R)-1-(Cyclobutanecarbonyl)-4-ethyl-N-(2-((methylamino)methyl)benzyl)-N-(2-oxo-2-((2′-oxo-1,1′,2′,3-tetrahydrospiro[indene-2,3′-pyrrolo[2,3-b]pyridin]-5-yl)amino)ethyl)piperidine-4-carboxamide]"
2,24.5 nM,"CCOC(=O)N1CCC(CC)(C(=O)N(CC(=O)Nc2ccc3c(c2)C[C@@]2(C3)C(=O)Nc3ncccc32)Cc2ccccc2CNC)CC1 [Example 115, (R)-Ethyl 4-ethyl-4-((2-((methylamino)methyl)benzyl)(2-oxo-2-((2′-oxo-1,1′,2′,3-tetrahydrospiro[indene-2,3′-pyrrolo[2,3-b]pyridin]-5-yl)amino)ethyl)carbamoyl)piperidine-1-carboxylate]"
3,229 nM,"CNCc1ccccc1CN(CC(=O)Nc1ccc2c(c1)C[C@@]1(C2)C(=O)Nc2ncccc21)C(=O)C1(C)CCCNC1 (stereo partly drawn) [Example 146, 3-Methyl-N-(2-((methylamino)methyl)benzyl)-N-(2-oxo-2-(((R)-2′-oxo-1,1′,2′,3-tetrahydrospiro[indene-2,3′-pyrrolo[2,3-b]pyridin]-5-yl)amino)ethyl)piperidine-3-carboxamide]"
4,10.5 nM,"CNCc1ccccc1CN(CC(=O)Nc1ccc2c(c1)C[C@@]1(C2)C(=O)Nc2ncccc21)C(=O)C1(CC(F)(F)F)CCN(C(=O)N(C)C)CC1 [Example 121, (R)—N1,N1-Dimethyl-N4-(2-((methylamino)methyl)benzyl)-N4-(2-oxo-2-((2′-oxo-1,1′,2′,3-tetrahydrospiro[indene-2,3′-pyrrolo[2,3-b]pyridin]-5-yl)amino)ethyl)-4-(2,2,2-trifluoroethyl)piperidine-1,4-dicarboxamide]"
5,15.1 nM,"CCC1(C(=O)N(CC(=O)Nc2ccc3c(c2)C[C@@]2(C3)C(=O)Nc3ncccc32)Cc2ccccc2CNC)CCN(C(=O)[C@H](C)NC)CC1 [Example 94, 4-Ethyl-N-(2-((methylamino)methyl)benzyl)-1-((S)-2-(methylamino)propanoyl)-N-(2-oxo-2-(((R)-2′-oxo-1,1′,2′,3-tetrahydrospiro[indene-2,3′-pyrrolo[2,3-b]pyridin]-5-yl)amino)ethyl)piperidine-4-carboxamide]"
6,69.2 nM,"CC(=O)N1CCC(C)(C(=O)N(CC(=O)Nc2cc3c(cc2C)CC2(C3)C(=O)Nc3ncccc32)Cc2ccccc2CN)CC1 (stereo not drawn) [Example 130, 1-Acetyl-N-(2-(aminomethyl)benzyl)-4-methyl-N-(2-((5-methyl-2′-oxo-1,1′,2′,3-tetrahydrospiro[indene-2,3′-pyrrolo[2,3-b]pyridin]-6-yl)amino)-2-oxoethyl)piperidine-4-carboxamide]"
7,12.6 nM,"CCC1(C(=O)N(CC(=O)Nc2ccc3c(c2)C[C@@]2(C3)C(=O)Nc3ncccc32)Cc2ccccc2CNC)CCN(C(=O)CN2CCC(F)(F)CC2)CC1 [Example 95, (R)-1-(2-(4,4-Difluoropiperidin-1-yl)acetyl)-4-ethyl-N-(2-((methylamino)methyl)benzyl)-N-(2-oxo-2-((2′-oxo-1,1′,2′,3-tetrahydrospiro[indene-2,3′-pyrrolo[2,3-b]pyridin]-5-yl)amino)ethyl)piperidine-4-carboxamide]"
8,2.88 nM,"CNCc1ccccc1CN(CC(=O)Nc1ccc2c(c1)C[C@@]1(C2)C(=O)Nc2ncccc21)C(=O)C1(C)CCCN(C(C)=O)CC1 (stereo partly drawn) [Example 149, 1-Acetyl-4-methyl-N-(2-((methylamino)methyl)benzyl)-N-(2-oxo-2-(((R)-2′-oxo-1,1′,2′,3-tetrahydrospiro[indene-2,3′-pyrrolo[2,3-b]pyridin]-5-yl)amino)ethyl)azepane-4-carboxamide]"
9,417 nM,"CNCc1cc(F)ccc1CN(CC(=O)Nc1ccc2c(c1)C[C@@]1(C2)C(=O)Nc2ncccc21)C(=O)C1(C)CCNCC1 [Example 137, (R)—N-[[4-Fluoro-2-(methylaminomethyl)phenyl]methyl]-4-methyl-N-[2-oxo-2-[[(3R)-2-oxospiro[1H-pyrrolo[2,3-b]pyridine-3,2′-indane]-5′-yl]amino]ethyl]piperidine-4-carboxamide]"
10,56.2 nM,"CNCc1ccccc1CN(CC(=O)Nc1ccc2c(c1)CC1(C2)C(=O)Nc2ncccc21)C(=O)C12CCN(CC1)CC2 (stereo not drawn) [Example 139, N-(2-((Methylamino)methyl)benzyl)-N-(2-oxo-2-((2′-oxo-1,1′,2′,3-tetrahydrospiro[indene-2,3′-pyrrolo[2,3-b]pyridin]-5-yl)amino)ethyl)quinuclidine-4-carboxamide]"
11,34.7 nM,"CCC1(C(=O)N(CC(=O)Nc2ccc3c(c2)C[C@@]2(C3)C(=O)Nc3ncccc32)Cc2ccccc2CNC)CCN(C(=O)c2cc(C(C)(C)C)n[nH]2)CC1 [Example 91, (R)-1-(3-(tert-Butyl)-1H-pyrazole-5-carbonyl)-4-ethyl-N-(2-((methylamino)methyl)benzyl)-N-(2-oxo-2-((2′-oxo-1,1′,2′,3-tetrahydrospiro[indene-2,3′-pyrrolo[2,3-b]pyridin]-5-yl)amino)ethyl)piperidine-4-carboxamide]"
12,302 nM,"CNCc1ccccc1CN(CC(=O)Nc1ccc2c(c1)C[C@@]1(C2)C(=O)Nc2ncccc21)C(=O)C1(C)CCCN(C(C)=O)C1 (stereo partly drawn) [Example 145, 1-Acetyl-3-methyl-N-(2-((methylamino)methyl)benzyl)-N-(2-oxo-2-(((R)-2′-oxo-1,1′,2′,3-tetrahydrospiro[indene-2,3′-pyrrolo[2,3-b]pyridin]-5-yl)amino)ethyl)piperidine-3-carboxamide]"
